{"source": "ChEMBL document CHEMBL1150312", "about": "“The SAR studies of novel CB2 selective agonists, benzimidazolone derivatives” (Bioorg Med Chem Lett, 2008)", "data": [{"assay": "Lipophilicity, log D at pH 7.4", "type": "physicochemical", "conditions": "buffer", "values": [{"compound": "CC(C)CCn1c(=O)n(C(=O)N[C@H](C(N)=O)C(C)(C)C)c2ccccc21", "logD": 3.4}, {"compound": "CN(C)CCn1c(=O)n(C(=O)N[C@H](C(N)=O)C(C)(C)C)c2ccccc21", "logD": 1.5}, {"compound": "CC(C)(C)[C@H](NC(=O)n1c(=O)n(CCC2CCOCC2)c2ccccc21)C(N)=O", "logD": 2.4}, {"compound": "CC(C)(O)CCn1c(=O)n(C(=O)N[C@H](C(N)=O)C(C)(C)C)c2ccccc21", "logD": 2.2}, {"compound": "CC(C)(C)[C@H](NC(=O)n1c(=O)n(CC2CCCO2)c2ccccc21)C(N)=O", "note": "(stereo not given in full)", "logD": 2.1}, {"compound": "CC(C)(C)[C@H](NC(=O)n1c(=O)n(CC2(O)CCOCC2)c2ccccc21)C(N)=O", "logD": 1.6}, {"compound": "CC(C)(C)[C@H](NC(=O)n1c(=O)n(CCC2(O)CCOCC2)c2ccccc21)C(N)=O", "logD": 1.9}, {"compound": "CC(C)(O)Cn1c(=O)n(C(=O)N[C@H](C(N)=O)C(C)(C)C)c2ccccc21", "logD": 2.2}, {"compound": "CC(C)(C)[C@H](NC(=O)n1c(=O)n(CCN2CCCC2)c2ccccc21)C(N)=O", "logD": 1.5}]}, {"assay": "Bioavailability in rat at 3 mg/kg, po", "type": "ADME, organism-based", "conditions": "in vivo", "units": {"bioavailability": "%"}, "values": [{"compound": "CC(C)(O)CCn1c(=O)n(C(=O)N[C@H](C(N)=O)C(C)(C)C)c2ccccc21", "bioavailability": 33}]}]}
